In ChEMBL document CHEMBL4715844, “Structure-based virtual screening and biological evaluation of novel non-bisphosphonate farnesyl pyrophosphate synthase inhibitors” (Eur J Med Chem, 2020):

How the values were obtained:
[1] = target: T1, Farnesyl pyrophosphate synthase (Rattus norvegicus) (UniProt P05369); test: Inhibition of rat FPPS expressed in Escherichia coli BL21 (DE3) using GPP and IPP as substrate at 10 uM incubated for 10 mins by microplate reader
T1 sequence (whole entry): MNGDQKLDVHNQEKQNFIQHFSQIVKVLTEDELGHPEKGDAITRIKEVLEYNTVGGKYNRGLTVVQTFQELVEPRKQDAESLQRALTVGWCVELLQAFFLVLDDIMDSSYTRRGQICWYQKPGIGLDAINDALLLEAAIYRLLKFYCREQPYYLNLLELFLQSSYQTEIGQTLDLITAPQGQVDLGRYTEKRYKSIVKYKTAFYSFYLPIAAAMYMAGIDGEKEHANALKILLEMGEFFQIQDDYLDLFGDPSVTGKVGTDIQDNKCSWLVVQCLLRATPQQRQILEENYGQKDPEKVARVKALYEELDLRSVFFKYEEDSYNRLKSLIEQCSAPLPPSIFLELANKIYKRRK

[2] = target: T2, Farnesyl pyrophosphate synthase (Rattus norvegicus, UniProt P05369); test: Binding affinity to rat FPPS expressed in Escherichia coli BL21 (DE3) by isothermal titration calorimetry
T2 sequence (P05369 whole entry): T1 sequence (whole entry)

LoVo = test: Cytotoxicity against FPPS-positive human Lovo cells assessed as reduction in cell viability measured after 48 hrs by MTT assay
HCT-116 = test: Cytotoxicity against FPPS-positive human HCT116 cells assessed as reduction in cell viability measured after 48 hrs by MTT assay; settings: HCT-116, 48 h
MDA-MB-231 = test: Cytotoxicity against FPPS-negative human MDA-MB-231 cells assessed as reduction in cell viability measured after 48 hrs by MTT assay; format: functional, cell-based; settings: MDA-MB-231, 48 h

| inhibition [1] [%] | Kd [2] [µM] | Compound | IC50 (LoVo) [µM] | IC50 (HCT-116) [µM] | IC50 (MDA-MB-231) [µM] |
| --- | --- | --- | --- | --- | --- |
| 11.5 | 106 | O=c1oc2cc(O[C@@H]3O[C@H](CO)[C@@H](O)[C@H](O)[C@H]3O)ccc2c2ccccc12 |  |  |  |
|  |  | O=P(O)(O)C(O)(Cn1ccnc1)P(=O)(O)O [ZOLEDRONIC ACID] | 34.9 | 61.6 | > 100 |
| 25.3 | 499 | CCC(C)c1ccc(O[C@@H]2O[C@H](CO)[C@@H](O)[C@H](O)[C@H]2NC(C)=O)cc1 (some centres not stated) |  |  |  |
